From a melting point compilation (Tetko et al.; mined from patent text by program, amines drawn as free bases though some values may be those of a salt)

melting point | SMILES
185 to 187 °C | COC(=O)c1ccc(-c2nc(-c3ccc(C)cc3)cs2)cc1
108 to 110 °C | CC(C)NC(=O)c1cc(N(C)C)cc(Oc2cccc(C(F)(F)F)c2)n1
169 to 170 °C | O=C(OC1CCCCCCC1)c1cc2cc(CCl)ccc2oc1=O
134 to 135 °C | COC(=O)C1(C(=O)OC)CCC(c2c(-c3ccccc3)n(C)c3ccccc23)CC1
130 to 133 °C | COc1ccc(-c2cncc(C#N)c2Nc2ccc3[nH]ccc3c2C)cc1OC
175 to 176 °C | COC(=O)c1c(OC)ccc2ccccc12
95 to 97 °C | Cc1c(Cl)cccc1N=Cc1ccccc1O
340 to 350 °C | CCCN1CCc2c(ccc3[nH]c(=O)c(=O)[nH]c23)C1
157 to 160 °C | CCOC(=O)c1cc2cc(OCSN(C)C)ccc2oc1=O
74 to 76 °C | CCOC(=O)CCCNc1cc(OC)c(OC)cc1C(C)=O
123 to 126 °C | COc1ccc2sc(-c3ccc(OCCN4CCCC4)cc3)cc2c1
183 °C | CN(C)c1ccc(C(=O)NC2CCN(C(c3ccccc3)c3ccccc3)CC2)c([N+](=O)[O-])c1
130 to 138 °C | OCC(Nc1ncnc2nc[nH]c12)c1ccccc1 (racemic)
66 to 69 °C | CCCCOC(=O)c1cc2cccc(OC)c2[nH]1
232 to 233 °C | CN1CCN(c2sc(-c3nc4ccccc4c(=O)n3-c3ccc(Cl)cc3)cc2-c2ccc(S(C)(=O)=O)cc2)CC1
183 to 184 °C | COc1cccc(-n2c(=O)c3c(c4cccnc42)OC(COC(C)=O)C3)c1 (stereo not drawn)
229 to 230 °C | O=C(O)c1cccc(-c2ccc3c(c2)C(c2cc(Cl)ccc2Cl)CC3)c1 (stereo not drawn)
114 °C | Cn1c(=S)ccc2ccccc21
> 232 °C | COC(=O)Nc1nc2cc(C(N)c3ccccc3)ccc2[nH]1 (stereo not drawn)

melting point | SMILES
194 to 197 °C | CC(C)CN1C(=O)[C@@H](CC(=O)O)O[C@H](c2ccccc2OCc2ccccc2)c2cc(Cl)ccc21 (relative stereo)
175 °C | COc1ccc(C2(c3cccc(-c4ccncc4)c3)N=C(N)N(C)C2=O)cc1C (stereo not drawn)
248 to 250 °C | COc1ccc2cc(C(=O)Oc3ccc(Cl)cn3)c(=O)oc2c1
262 to 265 °C | O=S(=O)(Nc1nc2ccccc2nc1Nc1cccc2ccccc12)c1ccc(Cl)cc1
208 to 210 °C | CN1CCN(N(c2ccccc2)c2nc3c(-c4c(F)cccc4F)n[nH]c3s2)CC1
85 to 89 °C | CC(C)c1cc(C(C)C)c(CC(=O)NS(=O)(=O)Oc2c(C(C)C)cc([N+](=O)[O-])cc2C(C)C)c(C(C)C)c1
226 to 228 °C | NC(=O)COc1ccccc1C(=O)Nc1ccc(C(=O)N2CCCC(=O)c3ccccc32)cc1
217 to 221 °C | COc1cccc2c1C(=O)c1c(O)c3c(c(O)c1C2=O)CC(O)(C(C)=O)CC3O (stereo not drawn)
220 to 240 °C | COc1ccc(Nc2nc(-c3ccccc3)cc(N3CCC(O)CC3)n2)cc1Cl
154 to 155 °C | COc1ccc(CCc2nnc(-c3ccc4[nH]nnc4c3)o2)cc1C(F)(F)F
131 to 133 °C | CCCCS(=O)(=O)N(C(=O)OC(C)(C)C)c1cc(O)ccc1OCc1ccccc1
133 to 134 °C | COc1cc([C@H]2CC[C@H](c3cc(OC)c(OC)c(OC)c3)S2)cc(OC)c1OC (relative stereo)
180 to 182 °C | CC#CCOc1ccc(S(=O)(=O)N[C@@H](C(=O)NO)C2CCC(O)CC2)cc1 (stereo partly drawn)
142 to 143 °C | OC(c1ccccc1)(c1ccccn1)C1CCN(Cc2ccccc2)CC1 (stereo not drawn)
158 °C | CCOc1nn(C(=O)NS(=O)(=O)c2c(C)csc2C)c(=O)n1C
168 to 171 °C | CC(O)(C=Cc1ccc(S(=O)(=O)c2ccncc2)cc1)C(F)(F)F (stereo not drawn)
176 to 177 °C | Cc1ncc(CNC(=O)c2sc(-n3cnn(Cc4ccc(F)cc4)c3=O)nc2C)s1
164 to 165 °C | COC(=O)c1c(Br)ccc2[nH]ncc12

The remaining lines, values behind:

SMILES | melting point
CC1Cc2cccc(S(N)(=O)=O)c2OS1(=O)=O (stereo not drawn) | 185 to 186 °C
CCn1cnc2c(Nc3cccc(C(=O)O)c3)nc(N[C@H]3CC[C@H](O)CC3)nc21 | 317 °C
COc1cc2c(cc1OC)C(O)C(N1CCC(N3c4ccccc4NC3C)CC1)C2 (stereo not drawn) | 255 to 256 °C
CCCOc1ccccc1-c1nc2nc(NCC(C)OC)ncc2c(=O)[nH]1 (stereo not drawn) | 193 to 194 °C
COC(=O)c1nc2cc(Cn3ccnc3)ccc2[nH]1 | 228 °C
O=C1c2ccccc2C(O)N1c1ccc2ccc(F)nc2n1 (stereo not drawn) | 246 °C
CC(C)(C)COc1ccc(NC(=O)c2cc3ccccc3n2CC(=O)O)cc1C#N | 194 to 195 °C
Nc1nc(-c2ccccc2)nc2nc(-c3ccco3)nn12 | > 300 °C
CCOC(=O)C(CCc1ccccc1)=NO | 84 to 85 °C
Cc1ccc(NC(=O)c2cc([N+](=O)[O-])ccc2NC(=O)CF)c(C)c1 | 227 to 229 °C
CSC(SC)c1cnn(-c2c(Cl)cc(C(F)(F)F)cc2Cl)n1 | 67 to 68 °C
CCn1c(C)c(C2(N(c3ccccc3)c3ccccc3)OCc3cccnc32)c2ccccc21 (stereo not drawn) | 132 to 136 °C
Cc1ccnc(C=Cc2ccccc2)n1 | 65 to 67 °C
Cc1cc(F)ccc1-c1cc(-c2ccccc2)nc(C(C)C)c1C=O | 110 to 112 °C
C1=C(CCC2CCCO2)CCN(Cc2c[nH]c3ncccc23)C1 (stereo not drawn) | 70 to 72 °C
NS(=O)(=O)c1cccc2c1COC2 | 153 to 158 °C
Cc1[nH]nc(Oc2c(Cl)cc(C(F)(F)F)cc2Cl)c1Cl | 156 to 158 °C
CNC(=O)C1CCCCN1C(=O)OC(C)(C)C (stereo not drawn) | 83 to 83.5 °C
O=C1c2ccccc2N(N2CCCCCC2)C2=NCCN12 | 206 to 208 °C
N#CC(=NO)c1c(F)cccc1Cl | 119 to 120 °C
Cn1cncc1C(O)(c1cccc(I)c1)c1ccc2c(c1)c(-c1cccc(Cl)c1)cc(=O)n2C (stereo not drawn) | 226 °C

SMILES | melting point
CC(C)(C)OC(=O)N1C(=O)[C@H](O)[C@@H]1C=Cc1ccccc1 | 132 to 133 °C
COCC(=O)Nc1cccc(C2(C3CCN(C(=O)c4ccc(C(=O)OC)cc4)CC3)N=C(N)N(C)C2=O)c1 (stereo not drawn) | 161 to 163 °C
CC1(C)CC(NC(=O)CCC(=O)O)CC(C)(C)N1OC1CCCCC1 | 136 to 138 °C
CCCC1C(C(=O)OCC)C(O)(C(F)(F)F)OC(O)(C(F)(F)F)C1C(=O)OCC (stereo not drawn) | 128 to 132 °C
COC(=O)C=CN1CCN(c2cccc(-n3cnc4cc(-c5ccoc5)ccc43)c2)CC1 | 168 to 171 °C
O=C(O)c1nc2n(n1)-c1cc(Cl)ccc1N(c1ccc(Cl)cc1Cl)C2 | 218 to 222 °C
Cn1cc(C=CC(=O)NCN2CCCC2)c([N+](=O)[O-])n1 | 180 to 183 °C
[N-]=[N+]=NC1(CO)OC(n2ccc(=O)[nH]c2=O)C(O)C1O (stereo not drawn) | 86 to 93 °C
O=C(O)[C@H](Cc1ccc(C(F)(F)F)cc1)[C@@H](O)c1ccc(Oc2ccccc2)cc1 (racemic) | 128 to 129 °C
CC(=O)CCc1ccc(C(=O)c2ccc(Cl)cc2)cc1 | 91 to 92 °C
COc1ccc(C(C)(C)C)cc1C=Cc1ccc(CCl)cc1 | 103 to 104 °C
CCN(C(=O)N1CCN(c2cc(OC)cc(OC)c2)CC1)c1cc2ccccc2nc1OC | 118 to 120 °C
CC(C)Oc1ccccc1C1(CC(=O)O)C(=O)Nc2ccc(Cl)cc21 (stereo not drawn) | 146 to 148 °C
NC(=O)c1cnc2n(c1=O)CCCCC2 | 234 to 235 °C
N#CCCN1C(=O)C2(COc3cc4c(cc32)OCO4)c2ccccc21 (stereo not drawn) | 200 to 202 °C
CN1Cc2cccc3c2c(cn3C)S1(=O)=O | 190 °C
COc1ccc2cc(CNCCNC(=O)C34CC5CC(CC(C5)C3)C4)oc2c1OC | 206 to 207 °C
Cc1cc(CO)ccn1 | 58 to 59 °C
CN1Cc2c(-c3noc(CCl)n3)ncn2-c2cccc(Cl)c2C1=O | 208 to 210 °C
CCCCNC(=O)N1CC(Oc2cccc(C(F)(F)F)c2)C1 | 108 to 109 °C
OCCN(CCO)Cc1nnc2n1-c1ccc(Cl)cc1C(c1ccccc1)=NC2 | 84 to 87 °C

SMILES | melting point
Cc1cc(C2CCC2)n2nc(S(=O)(=O)Nc3c(Cl)cccc3Cl)nc2n1 | 260 °C
COc1ccc(CNc2nc(N3CCCC3CO)nc(OC)c2C(=O)NCc2ncccn2)cc1Cl (stereo not drawn) | 153 to 154 °C
O=S1(=O)N=CN(C2CC2)c2cc(Br)cc(F)c21 | 285 to 287 °C
Nc1ccccc1SSc1ccccc1N | 88 to 89 °C
O=c1cc(-c2ccccc2)oc2ncccc12 | 103 to 105 °C
CN1CC[C@@H](c2c(O)cc(O)c3c(=O)cc(-c4cc(F)ccc4Br)oc23)[C@@H]1CO | 145 to 147 °C
CC(C)[C@H](NC(=O)N(C)Cc1cccnc1)C(=O)N[C@@H](Cc1ccccc1)[C@H](O)[C@@H](O)[C@H](Cc1ccccc1)NC(=O)[C@@H](NC(=O)N(C)Cc1ccccn1)C(C)C | 92 to 94 °C
CCOC(=O)CCc1ccc(OCCCc2cn(-c3ccc(C(F)(F)F)cn3)nc2OCC)cc1OCc1ccccc1 | 80 to 81 °C
CNc1cc(N)c(CCCN)c2c1C(=O)c1ccccc1C2=O | 142 °C
CSc1nnnc2c1sc1nc(C)ccc12 | 197 to 198 °C
CC(C)(C)[Si](C)(C)O[C@H](/C=C/[C@@H]1[C@H]2CC(=O)O[C@H]2C[C@H]1O[Si](C)(C)C(C)(C)C)COc1cccc(C(F)(F)F)c1 | 91 to 93 °C
CC(C)OCc1cnc2c(NC(=O)c3c(Cl)cccc3Cl)cccc2c1Cl | 117 to 118 °C
O=C(Nc1cccc(-c2ccnc3c(C(=O)c4cccs4)cnn23)c1)OCCCN1CCS(=O)(=O)CC1 | 148 to 159 °C
Clc1ccc(N2CCN(Cc3c[nH]c4ncccc34)CC2)cc1Cl | 219 to 220 °C
CS(=O)(=O)Nc1ccc(OCC2CCN(c3cc([N+](=O)[O-])ccn3)CC2)cc1 | 184 °C
COc1ccnc(C(=O)N[C@H]2COC(=O)[C@H](Cc3ccccc3)[C@@H](O)[C@H](C)OC2=O)c1OCc1ccccc1 | 110 to 114 °C
O=C1CCc2c(Cc3ccc(Cl)cc3)cccc21 | 87 to 88 °C
CCCN1CCC(C(=O)O)=Cc2cc(Br)ccc21 | 172 to 173 °C
O=C1C=C(OCCCCCCO)c2ccccc2C1=O | 96 to 98 °C
